Test results taken from patent US12076307B2, “Compositions for prevention or treatment of acute radiation syndrome and other radiation exposure” (priority 2017, dated 2024).
pIC50: −log10 of the molar value. Several values for one entry are separate records, joined by “and”; a condition that tells them apart may be missing. Equal entries are not always repeated.

Tests used:
[1] = system: BALB/c mice, 6.11 Gy γ-radiation TBI; test: Hematopoietic ARS (H-ARS) CBC time course, 6.11 Gy; format: in vivo, mouse
Description: For the time course analysis of hematopoietic ARS (H-ARS), female mice were grouped 5 per treatment cohorts; γ-radiation only cohort (positive control) and γ-radiation with EC-18 250 mg/kg cohort. For the analysis of dose effect of EC-18 administration on H-ARS, mice were grouped 8 (5 males and 3 females) per treatment cohorts; γ-radiation only cohort (positive control), γ-radiation with EC-18 50 mg/kg cohort, γ-radiation with EC-18 100 mg/kg cohort, γ-radiation with EC-18 250 mg/kg cohort and γ-radiation with EC-18 100 mg/kg cohort. The whole blood was collected from the orbital sinuses using EDTA-free capillary tubes (Kimble Chase Life Science and Research Products LLC, FL, USA) and collection tubes containing K3E-K3EDTA (Greiner Bio-One International, Kremsmunster, Austria).
The therapeutic effect of EC-18 administration on H-ARS was then evaluated. […] Groups of BALB/c mice (n=5, female for FIG. 32A through FIG. 32E and n=8, 5 male, 3 female for FIG. 32F through FIG. 32J) were exposed to 6.11Gy of γ-radiation and various doses of EC-18 were orally administered once daily to day 15, or remained untreated. FIGS. 32A through 32E show the time course of the white blood cell count (WBC; FIG. 32A), absolute Neutrophil count (ANC; FIG. 32B), absolute Lymphocyte count (ALC; FIG. 32C), platelet count (PLT; FIG. 32D) and red blood cell count (RBC; FIG. 32E) over 15 days, respectively. FIG. 32F through FIG. 32J show the dose effect of EC-18 administration on WBC (FIG. 32F), ANC (FIG. 32G), ALC (FIG. 32H), PLT (FIG. 32I) and BRC (FIG. 32J) on day 15, respectively. ns; not significant,* p<0.05, **p<0.01, *** p<0.005.

Balb/c mice, 6.11 Gy TBI = test: Dosing schedule optimization (delayed treatment) in LD70/30 model; format: in vivo, mouse
Description: EC-18 was administered daily in-life with its optimal dosage (250 mg/kg) at 0, 1, 2, and 3 days after irradiation on Day 0. To examine the durable efficacy of EC-18, the survival was examined 15 days after the in-life phase without the daily treatment of EC-18.
EC-18 was administered daily in-life with its optimal dosage (250 mg/kg) at 0, 1, 2, and 3 days after irradiation on Day 0. The survival rate of the γ-radiation only group was 35%. The percentages of survival of the irradiated mice with EC-18+0d, +1d, +2d, and +3d were 80, 70, 55, and 80%, respectively (FIG. 72).

ICR mice = test: CNS function in mice (Irwin test); format: in vivo, mouse; conditions: single oral doses up to 2000 mg/kg; 4 hrs
Beagle dog = test: Cardiovascular function in conscious dogs; format: in vivo; conditions: doses up to 2000 mg/kg
Description: CA was administered to one unanesthetized and unrestrained telemetered male Beagle dog and EC-18 (500, 1000, or 2000 mg/kg) was administered to each of three unanesthetized and unrestrained telemetered male Beagle dogs (1:1:1:1) weekly for 4 weeks. Cardiovascular effects were evaluated based on the behavioral observations, BP, HR, and ECG, from 1-hr pre-dose to 24-hr post-dose.

[2] = In vitro metabolic stability / metabolite screening, statements over all species; format: in vitro ADME, rat, dog, monkey, human
Description: [^14C]EC-18 or the positive control (7-ethoxycoumarin; 7-EC) reacted with microsomes prepared from hepatocytes of rats, dogs, monkeys, and humans, with or without cofactors, for 60 and 120 min. Then, the residual EC-18 concentration over time was measured by LC-RID ([^14C]EC-18) or LC-MS/MS (7-EC) (FIG. 63 and FIG. 64).
The LC-RID chromatographic profiles of radioactive metabolites produced in the 2-hr incubation reaction mixtures of the same test systems A, B, and C used to assess the metabolic and non-metabolic elimination rates of EC-18 were compared to the LC-UV chromatographic profiles of the synthetic reference material. […] The relative radioactivity of EC-18 accounted for 42-67% of total radioactivity. The peaks designated as M2, M3, and M5 were also determined in all species, and their relative radioactivity accounted for 12-34% of total radioactivity. The peaks of M4 and M6 were determined in monkeys and humans. M1 was abundantly detected in all species, but it was assumed to be a peak of early elution. The LC-UV chromatograms of reaction mixtures in each test system (FIGS. 65A-65C) and the relative radioactivity of the screened metabolites are shown in Table 25.

CYP1A2 = molecular target: T1, CYP1A2 (Homo sapiens, UniProt P05177); test: in vitro; format: in vitro ADME; conditions: human, microsomes
T1 construct: incubated with human liver microsomes; from tissue; host or cells: human liver microsomes

CYP2C9 = molecular target: T2, CYP2C9 (Homo sapiens, UniProt P11712); test: CYP enzyme inhibition in human liver microsomes, CYP2C9; format: in vitro ADME
T2 construct: incubated with human liver microsomes; from tissue; host or cells: human liver microsomes

OCT2 = molecular target: T3, OCT2 (Homo sapiens, UniProt O15244); test: Drug transporter inhibition, OCT2; format: in vitro ADME; conditions: 100 nM [3H] methyl-4-phenylpyridinium; transfected HEK-293 cells
T3 construct: expressed in transfected cells; host or cells: HEK-293
Description: This study examined the potential of EC-18 to interact with the transporter proteins that have been known to be involved in the absorption of commercially available drugs. EC-18 was pre-incubated with HEK-293 cells and LLC-PK1 cells that were transfected with the genes of most drug transporters as follows: OATP1B1, OATP1B3, OAT1, OAT3 and OCT2, and BCRP and P-gp, respectively.

[3] = Whole blood and lymphatic radioactivity in rats after single oral [14C]EC-18 100 mg/kg; format: in vivo, rat
[4] = EC-18 250 mg/kg daily, n=5 female
[5] = 6.11 Gy, 250 mg/kg daily starting +0 d
[6] = 6.11 Gy, 250 mg/kg daily starting +1 d
[7] = 6.11 Gy, 250 mg/kg daily starting +2 d
[8] = 6.11 Gy, 250 mg/kg daily starting +3 d
[9] = 6.11 Gy, 250 mg/kg daily starting +3 d, 250 mg/kg

T2 sequence (P11712 whole entry): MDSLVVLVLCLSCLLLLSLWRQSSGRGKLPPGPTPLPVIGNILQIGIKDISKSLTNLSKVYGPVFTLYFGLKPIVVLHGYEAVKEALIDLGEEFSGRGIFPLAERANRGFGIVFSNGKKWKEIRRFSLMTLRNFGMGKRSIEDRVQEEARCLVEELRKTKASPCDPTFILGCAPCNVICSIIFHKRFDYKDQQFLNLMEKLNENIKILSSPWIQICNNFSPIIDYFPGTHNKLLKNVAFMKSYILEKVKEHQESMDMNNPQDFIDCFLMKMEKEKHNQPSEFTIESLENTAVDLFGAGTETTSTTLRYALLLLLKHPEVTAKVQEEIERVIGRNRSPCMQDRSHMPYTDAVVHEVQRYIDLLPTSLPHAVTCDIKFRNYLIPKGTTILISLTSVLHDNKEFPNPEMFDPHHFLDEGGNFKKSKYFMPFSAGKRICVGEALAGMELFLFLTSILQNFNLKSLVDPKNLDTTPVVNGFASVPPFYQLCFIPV
T3 sequence (O15244 whole entry): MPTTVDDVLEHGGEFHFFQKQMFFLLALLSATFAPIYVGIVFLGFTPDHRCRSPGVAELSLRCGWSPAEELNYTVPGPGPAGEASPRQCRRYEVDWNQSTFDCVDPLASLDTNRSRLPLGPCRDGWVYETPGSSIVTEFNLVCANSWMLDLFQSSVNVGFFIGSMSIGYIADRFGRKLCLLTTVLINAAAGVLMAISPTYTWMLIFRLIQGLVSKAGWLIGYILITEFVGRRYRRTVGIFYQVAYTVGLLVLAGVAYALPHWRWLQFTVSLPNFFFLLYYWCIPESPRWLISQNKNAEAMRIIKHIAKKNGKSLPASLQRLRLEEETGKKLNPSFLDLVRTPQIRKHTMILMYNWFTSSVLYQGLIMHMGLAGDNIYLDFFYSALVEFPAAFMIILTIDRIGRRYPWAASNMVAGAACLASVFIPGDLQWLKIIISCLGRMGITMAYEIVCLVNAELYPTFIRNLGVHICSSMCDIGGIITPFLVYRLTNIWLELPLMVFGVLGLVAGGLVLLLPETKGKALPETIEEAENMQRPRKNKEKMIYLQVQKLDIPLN
T1 sequence (P05177 whole entry): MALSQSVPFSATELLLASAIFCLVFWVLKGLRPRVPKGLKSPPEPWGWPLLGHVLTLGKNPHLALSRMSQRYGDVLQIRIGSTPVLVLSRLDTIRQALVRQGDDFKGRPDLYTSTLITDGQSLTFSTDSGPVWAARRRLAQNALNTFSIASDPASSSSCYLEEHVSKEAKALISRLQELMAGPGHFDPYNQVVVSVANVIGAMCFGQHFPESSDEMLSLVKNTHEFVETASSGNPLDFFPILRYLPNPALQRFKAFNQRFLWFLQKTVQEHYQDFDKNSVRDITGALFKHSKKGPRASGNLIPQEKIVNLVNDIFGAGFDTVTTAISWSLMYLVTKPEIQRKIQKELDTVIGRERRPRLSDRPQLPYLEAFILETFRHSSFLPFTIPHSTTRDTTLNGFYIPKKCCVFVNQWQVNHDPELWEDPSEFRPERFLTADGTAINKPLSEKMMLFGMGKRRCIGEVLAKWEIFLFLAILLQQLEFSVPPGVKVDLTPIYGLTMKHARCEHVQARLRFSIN

CCCCC/C=C\C/C=C\CCCCCCCC(=O)OC(COC(C)=O)COC(=O)CCCCCCCCCCCCCCC (centres unmarked) [EC-18, 1-palmitoyl-2-linoleoyl-3-acetylglycerol]
duration of severe neutropenia [1, 4]: 7.2 ± 1.79 days
mean first day of neutropenia (ANC<500 cells/μL) [1, 4]: 2.2 ± 1.09 days
mean nadir of ANC [1, 4]: 20.0±10.00 cells/μL
reduction of PLT and RBC induced by a single TBI ([1]; oral once daily to day 15): attenuated
γ-radiation-induced depletion of WBC, ANC and ALC ([1]; oral once daily to day 15): significantly attenuated
survival vs negative control (Balb/c mice, 6.11 Gy TBI; 250 mg/kg, even up to 3-day-delayed treatment regimen): significantly improved
weight loss induced by irradiation (Balb/c mice, 6.11 Gy TBI; 6.11 Gy, 250 mg/kg): effectively prevented and rapidly recovered weight loss
No. of mice that survived/total (Balb/c mice, 6.11 Gy TBI; [5]): 16/20
Survival (Balb/c mice, 6.11 Gy TBI; [5]): 80%
Survival time of decedents, Median (Balb/c mice, 6.11 Gy TBI; [5]): 24.5 days
Survival time of decedents, Mean ± SEM (Balb/c mice, 6.11 Gy TBI; 6.11 Gy, 250 mg/kg daily starting +0 d, 250 mg/kg): 25.0 days and 25.0 ± 1.1 days
No. of mice that survived/total (Balb/c mice, 6.11 Gy TBI; [6]): 14/20
Survival (Balb/c mice, 6.11 Gy TBI; [6]): 70%
Survival time of decedents, Median (Balb/c mice, 6.11 Gy TBI; [6]): 23.5 days
Survival time of decedents, Mean ± SEM (Balb/c mice, 6.11 Gy TBI; 6.11 Gy, 250 mg/kg daily starting +1 d, 250 mg/kg): 23.7 days and 23.7 ± 1.4 days
No. of mice that survived/total (Balb/c mice, 6.11 Gy TBI; [7]): 11/20
Survival (Balb/c mice, 6.11 Gy TBI; [7]): 55%
Survival time of decedents, Median (Balb/c mice, 6.11 Gy TBI; [7]): 18.0 days
Survival time of decedents, Mean ± SEM (Balb/c mice, 6.11 Gy TBI; 6.11 Gy, 250 mg/kg daily starting +2 d, 250 mg/kg): 18.1 days and 18.1 ± 0.8 days
No. of mice that survived/total (Balb/c mice, 6.11 Gy TBI; [8]): 11/20
Survival time of decedents, Median (Balb/c mice, 6.11 Gy TBI; [8]): 23.0 days
Survival (Balb/c mice, 6.11 Gy TBI; [9]): 80% and 55%
Survival time of decedents, Mean ± SEM (Balb/c mice, 6.11 Gy TBI; [9]): 22.3 days and 22.3 ± 1.6 days
durable efficacy after withdrawal of EC-18 (Balb/c mice, 6.11 Gy TBI; 15 days after the in-life phase without daily treatment): extended the survival of animals for an extra 15 days
CNS function (Irwin test) (ICR mice): did not affect the CNS function
cardiovascular effects (behavior, BP, HR, ECG) (Beagle dog): no cardiovascular effects
relative radioactivity of total radioactivity ([2]; 2-hr incubation, all species and test systems): 42-67%
residual EC-18 concentration relative to initial concentration ([2]; 1 hr, test systems A, B, C, all species): ≥ 50%
order of residual EC-18 concentration ([2]; 2 hrs): human>rat and dog>monkey
residual EC-18 concentration ([2]; 2 hrs, all test systems, all species except monkeys): ≥ 50%
pIC50 (CYP1A2): 1.61
pIC50 (CYP2C9): 2.10
pIC50 (OCT2): < 4.49
Cmax of radioactivity at 24 hrs (so in the source) ([3]; lymphatic fluid): 48%
Cmax of radioactivity at 24 hrs (so in the source) ([3]; whole blood): 34%
